Laboratory results: PubChem BioAssay AID504820 (Southern Research Specialized Biocontainment Screening …, 2011)
Where “and” joins values, the source holds several entries; their conditions need not be identical. Equal entries are not always repeated. Calls of active or inactive are those of the source. No rule for the calls is given here.

Test system: HEp-2 cells, RSV cytopathic effect inhibition
Test: RSV-induced CPE protection of HEp-2 cells – cell-based, synthesized compounds, set 8, dose response (AID 504820)
Conditions: not given
With `COc1ccccc1CNC(=O)C1CCN(S(=O)(=O)c2cccc3nonc23)CC1` the IC50 was 3350 nM. In the case of `Cc1ccc(NC(=O)[C@@H]2CCCN2S(=O)(=O)c2cccc3cccnc23)c(C)c1`, the IC50 is reported as 3000 nM. With `Cc1ccc(Cn2c(=O)n(Cc3ccc(C(=O)NC(C)(C)C)cc3)c(=O)c3ccccc32)cc1` the IC50 was 1250 nM. `Cc1ccc(Cn2c(=O)n(Cc3ccc(C(=O)Nc4ccncc4)cc3)c(=O)c3ccccc32)cc1` showed an IC50 of 2650 nM. For `COc1ccc(C)c(NC(=O)[C@@H]2CCCN2S(=O)(=O)c2cccc3cccnc23)c1`, the IC50 was 4800 nM. `CC(C)c1ccccc1NC(=O)[C@@H]1CCCN1S(=O)(=O)c1cccc2cccnc12` showed an IC50 of 17200 nM. `Cc1ccccc1NC(=O)[C@@H]1CCCN1S(=O)(=O)c1cccc2cccnc12` showed an IC50 of 29000 nM. Work on `COCCCNC(=O)c1ccc(Cn2c(=O)c3ccccc3n(Cc3ccc(OC)cc3)c2=O)cc1` yielded an IC50 of 2300 nM. `COCCCNC(=O)c1ccc(Cn2c(=O)c3ccccc3n(Cc3ccc(Br)cc3)c2=O)cc1` showed an IC50 of 1150 nM. With `COCCCNC(=O)c1ccc(Cn2c(=O)c3ccccc3n(Cc3ccc(C)c(C(F)(F)F)c3)c2=O)cc1` the IC50 was 1500 nM. In the case of `Cc1ccc(C)c(NC(=O)[C@@H]2CCCN2S(=O)(=O)c2cccc3cccnc23)c1`, the IC50 is reported as 2900 nM and 1700 nM. `Cc1cccc(NC(=O)[C@@H]2CCCN2S(=O)(=O)c2cccc3cccnc23)c1C` showed an IC50 of 8900 nM. `Cc1ccc(NC(=O)C2CCCN2S(=O)(=O)c2cccc3cccnc23)c(C)c1` (configuration not stated) gave an IC50 of 12600 nM. Molecule `COCCCNC(=O)c1ccc(Cn2c(=O)c3ccccc3n(Cc3ccc4nonc4c3)c2=O)cc1` has an IC50 of 4700 nM. With `Cc1ccc(Cl)cc1NC(=O)[C@@H]1CCCN1S(=O)(=O)c1cccc2cccnc12` the IC50 was 2500 nM. With `COCCCNC(=O)c1ccc(Cn2c(=O)c3ccccc3n(Cc3ccc(C(F)(F)F)cc3)c2=O)cc1` the IC50 was 1400 nM. With `COCCCNC(=O)c1ccc(Cn2c(=O)c3ccccc3n(Cc3ccc([N+](=O)[O-])cc3)c2=O)cc1` the IC50 was 550 nM. Molecule `CCc1ccccc1NC(=O)[C@@H]1CCCN1S(=O)(=O)c1cccc2cccnc12` has an IC50 of 20800 nM.

Test system: not listed separately
Test: as above
Conditions: HEp-2 cells, RSV cytopathic effect inhibition; at 50 µM (top of the series)
For `Cc1cc(C)cc(NC(=O)[C@@H]2CCCN2S(=O)(=O)c2cccc3cccnc23)c1`, the CPE inhibition was 33.1% (inactive). With `Cc1ccc(C(C)(C)C)cc1NC(=O)[C@@H]1CCCN1S(=O)(=O)c1cccc2cccnc12` the CPE inhibition was 2.81% (inactive). With `Cc1ccc(NC(=O)C2CCCN2S(=O)(=O)c2ccc3ncccc3c2)c(C)c1` (configuration not stated) the CPE inhibition was 1.75% (inactive). For `Cc1cccc(C)c1NC(=O)[C@@H]1CCCN1S(=O)(=O)c1cccc2cccnc12`, the CPE inhibition was 44.1% (inactive). For `Cc1ccc(Cl)c(NC(=O)[C@@H]2CCCN2S(=O)(=O)c2cccc3cccnc23)c1`, the CPE inhibition was 8.49% (inactive). In the case of `Cc1ccc(NC(=O)[C@H]2CCCN2S(=O)(=O)c2cccc3cccnc23)c(C)c1`, the CPE inhibition is reported as 26.6% (inactive). In the case of `Cc1ccc(Cn2c(=O)n(Cc3ccc(C(=O)Nc4cc(C)nc5ccccc45)cc3)c(=O)c3ccccc32)cc1`, the CPE inhibition is reported as 2.83% (inactive). With `CCCn1c(=O)n(Cc2ccc(C(=O)NCCCOC)cc2)c(=O)c2ccccc21` the CPE inhibition was 2.28% (inactive). With `Cc1ccc(NC(=O)C2CCCN2S(=O)(=O)c2cccc3cc(C)cnc23)c(C)c1` (configuration not stated) the CPE inhibition was 11.1% (inactive). With `Cc1ccc(C(F)(F)F)cc1NC(=O)[C@@H]1CCCN1S(=O)(=O)c1cccc2cccnc12` the CPE inhibition was 15% (inactive). For `Cc1ccc(F)cc1NC(=O)[C@@H]1CCCN1S(=O)(=O)c1cccc2cccnc12`, the CPE inhibition was 10.8% (inactive). With `Cc1ccc(NC(=O)CNS(=O)(=O)c2cccc3cccnc23)c(C)c1` the CPE inhibition was 4.34% (inactive). With `O=C([C@@H]1CCCN1S(=O)(=O)c1cccc2cccnc12)N1CCOCC1` the CPE inhibition was 1.71% (inactive). For `Cc1ncccc1NC(=O)[C@@H]1CCCN1S(=O)(=O)c1cccc2cccnc12`, the CPE inhibition was 3.67% (inactive). In the case of `Cc1cc(NC(=O)[C@@H]2CCCN2S(=O)(=O)c2cccc3cccnc23)n(C(C)(C)C)n1`, the CPE inhibition is reported as 33.2% (inactive). In the case of `Cc1ccc(NC(=O)C2CCCN2S(=O)(=O)c2cccc3ccccc23)c(C)c1` (configuration not stated), the CPE inhibition is reported as 1.6% (inactive). For `Cc1ccc(C(C)C)cc1NC(=O)[C@@H]1CCCN1S(=O)(=O)c1cccc2cccnc12`, the CPE inhibition was 7.9% (inactive). With `Cc1cccc(NC(=O)[C@@H]2CCCN2S(=O)(=O)c2cccc3cccnc23)c1` the CPE inhibition was 12.8% (inactive). With `COCCCNC(=O)c1ccc(Cn2c(=O)c3ccc(Br)cc3n(Cc3ccc(C)cc3)c2=O)cc1` the CPE inhibition was 1.9% (inactive). For `Cc1ccc(NC(=O)[C@@H]2CCCN2S(=O)(=O)c2cccc3cccnc23)cc1`, the CPE inhibition was 25.5% (inactive). With `O=C(Nc1ccc(Cl)cc1Cl)[C@@H]1CCCN1S(=O)(=O)c1cccc2cccnc12` the CPE inhibition was 2.1% (inactive). With `Cc1ccc(NC(=O)C(C)NS(=O)(=O)c2cccc3cccnc23)c(C)c1` (configuration not stated) the CPE inhibition was 4.35% (inactive). In the case of `Cc1ccc(NC(=O)[C@@H]2CCCN2S(=O)(=O)c2cccc3cccnc23)c(C)n1`, the CPE inhibition is reported as 4.2% (inactive). With `COc1ccc(C)cc1NC(=O)[C@@H]1CCCN1S(=O)(=O)c1cccc2cccnc12` the CPE inhibition was 4.82% (inactive). In the case of `Cc1ccc(NC(=O)[C@@H]2CCCN2S(=O)(=O)c2cccc3nonc23)c(C)c1`, the CPE inhibition is reported as 6.16% (inactive). For `Cc1ccc(NC(=O)C2CCCN2S(=O)(=O)c2ccccc2)c(C)c1` (configuration not stated), the CPE inhibition was 1.19% (inactive). With `O=C(Nc1ccccc1)[C@@H]1CCCN1S(=O)(=O)c1cccc2cccnc12` the CPE inhibition was 12.2% (inactive). For `Cc1ccc(NC(=O)C2CCCN2S(C)(=O)=O)c(C)c1` (configuration not stated), the CPE inhibition was 2.52% (inactive). In the case of `Cc1ccc(Cn2c(=O)n(Cc3ccc(C(=O)Nc4nccs4)cc3)c(=O)c3ccccc32)cc1`, the CPE inhibition is reported as 2.96% (inactive). For `Cc1ccc(NC(=O)CN(C)S(=O)(=O)c2cccc3cccnc23)c(C)c1`, the CPE inhibition was 46% (inactive). In the case of `COCCCNC(=O)c1ccc(Cn2c(=O)c3ccccc3n(C)c2=O)cc1`, the CPE inhibition is reported as 19.2% (inactive). In the case of `Cc1ccc(NC(=O)C2CCCN2S(=O)(=O)c2cccc3cnccc23)c(C)c1` (configuration not stated), the CPE inhibition is reported as 3.25% (inactive). With `COCCCNC(=O)c1ccc(Cn2c(=O)c3ccccc3n(Cc3cc(C)on3)c2=O)cc1` the CPE inhibition was 6.33% (inactive). With `CC(C)(C)NC(=O)[C@@H]1CCCN1S(=O)(=O)c1cccc2cccnc12` the CPE inhibition was 1.38% (inactive).
